Assay results published in a melting point compilation (Tetko et al.; mined from patent text by program, amines drawn as free bases though some values may be those of a salt).

SMILES | melting point [°C]
CN(CCO)Cc1cc(NC(=N)c2cccs2)ccc1C1CCCC1 | 116 to 118
CC(C)c1sc2ncnc(N)c2c1-c1ccc([N+](=O)[O-])cc1 | > 260
O=C(NO)c1cnc(N2CCN(S(=O)(=O)c3ccc(C(=O)Nc4ccc(Cl)c(-c5ccccn5)c4)cc3Cl)CC2)nc1 | 159
Cc1ccc(-n2c(-c3sc(Nc4ccc(Cl)cc4)nc3C)nc3ccccc3c2=O)cc1 | > 275
CC(C)(C)Nc1cc(Cl)nc(Cl)n1 | 192 to 193
CCOCc1nc2c(N)nc(C)c(C)c2n1CCN | 163 to 166
Cc1ccc(-c2ccccc2C(=O)NC(C)C#N)cc1 (stereo not drawn) | 102 to 104
CCC(CO)NC(=O)C(C)(C)c1ccc(-c2cccc(COC)c2)cc1 (stereo not drawn) | 73 to 75
O=C1COc2ccc(C#Cc3ccccn3)cc2N1 | 210
CON=C(C(=O)OC)c1ccccc1C#CC(=O)c1ccccc1 | 89 to 94
CC(C)c1nc(C(C)C)c(CO)c(-c2ccc(F)cc2)c1/C=C/c1ccccc1 | 107 to 110
COC(=O)CCC(=O)Oc1c(C)c(C)c2c(c1C)SC(C)O2 (stereo not drawn) | 73 to 75
Cc1nc(N)sc1-c1ccnc(Nc2ccc3c(c2)OCO3)n1 | 211 to 213
Oc1ccc(-c2ncc3ncc(-c4ccoc4)cc3n2)cc1 | > 268
C1=C(c2c[nH]c3ccccc23)CCN(CC2COc3ccc4c(c3O2)CCCO4)C1 (stereo not drawn) | 186 to 187
CC(C)c1cc(C(C)(C)C)cc(-c2ccc(F)cc2)c1O | 109 to 111
O=C(Nc1ccccc1)ONC1=Nc2ccc(Br)cc2C(c2ccccn2)=NC1 | 190 to 192
Cc1cc(C(C)C)c(S(C)(=O)=O)cc1C(=O)N=C(N)N | 220 to 223
O=C(Nc1ccc(Oc2ccccc2)cc1)N1CCN(c2ncnc3cc([N+](=O)[O-])ccc23)CC1 | 146 to 148
COc1cccc(CC(=O)O)c1OCc1nc(OC(C)C)c(C(=O)NCc2ccc(Cl)cc2Cl)s1 | 113 to 114
COc1cc(C)c(CCCCCCCCCCCCCCCCCCCCCCO)c(O)c1OC | 78 to 81
CCCCOc1ccc(OCc2ccccc2)c(C(=O)O)c1 | 79 to 82
N#CSc1c(-c2ccccc2)[nH]c(Cl)c1C#N | 159
CC(=O)N1C2=NC(C)(C)N(C)C(=O)N2c2ccccc21 | 159 to 162
Nc1nc2c(ncn2CCC(CO)CCl)c(=O)[nH]1 (stereo not drawn) | 273 to 275

SMILES | melting point [°C]
CCOC(=O)C1(c2ccc(Cl)cc2)CCN(C(=O)CC(c2ccccc2)(c2ccccc2)c2ccccc2)CC1 | 95 to 98
CS(=O)(=O)N(Cc1cccnc1)c1ccc(OCC(F)(F)F)cc1 | 69 to 70
CCCCCCN1CCN(Cc2ccc(NC(=S)Nc3ccccc3N)cc2)C(=O)C1=O | 160
O=C(Nc1ccc(C(F)(F)F)cc1)NC1CCS(=O)(=O)CC1 | 196 to 198
O=c1[nH]c2cccc(O)c2n1CCN1CCN(c2cccc(C(F)(F)F)c2)CC1 | 246
CCCc1c(OCCCOCCCOc2c(C(C)=O)ccc(OCC(=O)O)c2CCC)ccc(C(C)=O)c1O | 86 to 90
CCCOc1cccc(C=C(C=O)C(C=O)=Cc2cccc(OCCC)c2)c1 | 93 to 94
C=C1CCC2C3CCC4=C(CC=C(OC)C4)C3CCC12C (stereo not drawn) | 77 to 78
O=C(O)CCc1cnoc1-c1ccc(Cl)c(Br)c1 | 177 to 180
CCCCCCCCCCCCCCCCSCC(CNS(=O)(=O)CCCCl)NC(=O)OC (stereo not drawn) | 67 to 69
O=C1C2CCCN2c2ncccc2N1Cc1ccccc1 (stereo not drawn) | 222 to 225
COc1ccc(Cn2ncc3nc(Cl)nc(Cl)c32)cc1 | 100 to 101
COCCN1CCn2c1nc(C(=O)O)c(OCc1ccccc1)c2=O | 125 to 126
c1ccc(P(c2ccccc2)c2cccc3c2-c2c(cccc2P(c2ccccc2)c2ccccc2)OCCCO3)cc1 | 85
O=C1c2c(O)ccc(O)c2C(=O)c2c(NCCN3CCCC3)ccc(NCCN3CCCC3)c21 | 193 to 196
Cc1ccc(Sc2cncc3sc(C(=O)Nc4ccc(Cl)cc4)cc23)cc1 | 208 to 211
Cc1nc(C=CNC(=O)c2cccc(C(F)(F)F)c2)n[nH]1 | 153 to 154
COC(=O)COc1cc2c(c3c1c(C(=O)C(N)=O)c(C)n3Cc1ccccc1)CCCC2 | 115 to 125
CC(C)=CCOc1ccc(C(=O)C=Cc2cccs2)c(O)c1 | 100 to 102
CC[C@H](C)[C@H](NC(=O)Nc1ccccc1C(F)(F)F)C(=O)N[C@H](CO)Cc1c[nH]c2ccccc12 | 232 to 234
COC(=O)CCCOc1cc([N+](=O)[O-])c(C=O)cc1OC | 75
COC(=O)c1c2ccccc2nc2c3ccccc3n(C)c12 | 127
COC(=O)c1cc(COc2c(OC)c3cocc(OC)c-3c2C(C)=O)ccc1COc1c(OC)c2cocc(OC)c-2c1C(C)=O | 87 to 89
CC(C)CCN1CCC(N(C)S(=O)(=O)c2ccc(Nc3nccc(Nc4ccc(F)cc4)n3)cc2)CC1 | 184 to 185
CC(C)(C)OC(=O)N1CCC(N(Cc2ccccc2)S(N)(=O)=O)CC1 | 140 to 142

SMILES | melting point [°C]
CC(C)c1[nH]n(-c2c(Cl)cc(Cl)cc2Cl)c2nc(Cc3ccc(N(C(=O)OC(C)(C)C)C(=O)[C@@H]4CCCN4)cc3)nc(=O)c1-2 | 225 to 226
C[Si](C)(C)Sc1ncn([Si](C)(C)C)n1 | 90 to 94
COc1cccc2c(Nc3ccccc3C)nc(Nc3ccccc3C)nc12 | 185 to 187
CCCCNS(=O)(=O)C[C@@H](O)C(O)[C@@H](CC1CCCCC1)NC(=O)[C@H](CC(C)C)NC(=O)OCc1ccccc1 (relative stereo) | 50 to 70
COC(=O)COc1cccc2c(CCBr)c(C)oc12 | 146 to 148
CCOC(=O)Nc1cnn(C)c1S(=O)(=O)NC(=S)NC(C)C | 141 to 144
C[C@]1(CN2CCN(c3ccc(Cl)cc3)CC2)Cn2cc([N+](=O)[O-])nc2O1 | 218 to 220
CC=C(C(=O)OC(c1ccccc1)c1ccccc1)N1C(=O)[C@@H]2N=C(Cc3ccccc3)O[C@@H]21 | 104 to 106
Cc1ccc(CC(=O)N[C@H]2C[C@H](C(=O)O)Nc3cc(Cl)cc(Cl)c32)cc1 (relative stereo) | 229 to 230
Cc1oc(C)c(C(=O)O)c1C(=O)O | 232 to 235
COc1ccc(-c2nc(C)ccc2OC2SCC(O)C(O)C2O)cc1 (stereo not drawn) | 86 to 90
CCc1oc(C)cc(=O)c1C(=O)Nc1ccccc1 | 154 to 156
CCCCCC#CCC(Cc1cccnc1)(C(=O)NO)S(=O)(=O)c1ccc(OC)cc1 (stereo not drawn) | 146
Cc1c(F)c(F)c(C)c(C(=O)O)c1F | 118 to 119
N#CC(C(=O)Nc1ccc(S(=O)C(F)(F)F)cc1)=C(O)C1CC1 (stereo not drawn) | 155 to 157
CC(O)Cn1nc2c3c(cc(N)cc31)CCC2 (stereo not drawn) | 125 to 127
c1ccc2c(c1)Cn1cccc1C1(CCNCC1)O2 | 168 to 170
O=C(CCCOc1ccc(-c2ccc(Cl)cc2)cc1)NO | 168 to 170
O=C(NC1CCCCC1)NS(=O)(=O)c1ccc(CCNC(=O)N2CCCCC2=O)cc1 | 197 to 199
COc1cc(OC)nc(CCl)n1 | 40 to 42
COc1ccc(C(=O)Nc2ccccc2)cc1NC(=S)Nc1cccc(C(F)(F)F)c1 | 177 to 178
COC(=O)CCCc1cc2cc(Cl)ccc2n1S(=O)(=O)c1ccc2nsnc2c1 | 103 to 106
Cc1nc(CO)ccc1CO | 94 to 96
CC(C)(C)c1cc(C=C2SCN(CCO)C2=O)cc(C(C)(C)C)c1O | 131 to 135
OCCCc1ccc(OCCN2CCOCC2)cc1Oc1ncc(C(F)(F)F)cc1Cl | 69.2 to 70.4

SMILES | melting point [°C]
Cc1ccc(N2CCN(c3ccc4c(ncc5c4c(=O)c(C(=O)O)cn5C)c3F)CC2)cc1F | > 300
COc1ccccc1-c1ccn2ncc(Br)c2n1 | 125 to 128
CCCN1C=CC=C2C(=O)NC(c3ccccc3OCC)N=C21 (stereo not drawn) | 134 to 137
ClCCCc1nnnn1C1CCCCC1 | 82 to 85
CC(=O)N1CC(Cc2ccccc2)OC1=O (stereo not drawn) | 90
CC(=O)N1CCc2cc(S(=O)(=O)n3c(COC(C)(C)C(=O)O)cc4cc(Cl)ccc43)ccc21 | 142 to 144
Cc1ccc(C)c(Oc2ccc(C#N)cc2S(=O)(=O)N2CCNCC2)c1 | 60 to 72
Fc1ccc(Oc2ccnc3cccnc23)cc1 | 122 to 124
COc1cc(N)c(Cl)cc1C(=O)NCC1CCN(CCCCCCCC(=O)c2ccccc2)CC1 | 138 to 140
CCC(C)(C)c1cc(C(=O)COc2ccc(C=O)cc2OC)cc(C(C)(C)CC)c1O | 106 to 107
CCCCCCCCNC(=O)Nc1ccccc1C(=O)NC1CCN(C(c2ccccc2)c2ccccc2)CC1 | 149 to 151
COc1ccc(-c2csc(Nc3cnccn3)n2)cc1OC | 205 to 207
COc1cc(Nc2c(C#N)cnc3cc(SCc4ccccc4)c(OC)cc23)c(Cl)cc1Cl | 123 to 125
O=C1c2ccccc2S(=O)(=O)N1CCCCOc1ccc(O)cc1 | 107 to 109
Cc1cc(Cl)cc(CO)c1 | 32 to 34.5
O=C(O)CCc1cn(Cc2ccc(OCc3ccc(-c4ccccc4)cn3)cc2)nc1-c1ccc(F)cc1 | 162 to 163
O=C1NCCN1C1CCN(CCC2COc3ccccc3O2)CC1 (stereo not drawn) | 155 to 157
COC(=O)c1cncc(-c2ccc(OC)cc2)c1 | 99 to 101
N#Cc1nn(-c2c(Cl)cc(C(F)(F)F)cc2Cl)c([N+](=O)[O-])c1OC(F)F | 72.5 to 74
CCc1nc(N)nc(N)c1CCC(C)c1ccc(C(F)(F)F)cc1 (stereo not drawn) | 48 to 55
Cc1ccc(S(=O)(=O)N2CCN(C(c3ccccc3)c3ccc(Cl)cc3)CC2)cc1 (single isomer, unassigned; (+)) | 171
NC(=O)c1coc2ccccc2c1=O | 220 to 225
CCOC(=O)C(=CNc1cccc(-c2ccncc2)c1)C(C)=O | 107 to 108
